# Reference: patent US20240217947A1, “Morpholinylquinazoline Compound, Pharmaceutical compositions thereof and Use Thereof” (SHANGHAI YINGLI PHARMACEUTICAL CO., LTD, priority 2022, published 2024)
# What was measured:
# Format in all cases: biochemical
# PI3Kα = PI3Kα (Homo sapiens, UniProt P42336); test: PI3Kα enzyme activity inhibition IC50 evaluation assay (ADP-Glo Kinase Assay); conditions: ATP 25 μM, PIP2 50 μg/mL, 1 hour room temperature, read-out: PI3K-α IC50
# Protocol: (§1) Effec Example 1 IC50 evaluation assay for PI3Kα, PI3Kδ, PI3Kβ and PI3Kγ enzyme activity inhibition
# (§2) The experiment was performed using the ADP-Glo Kinase Assay kit, following the instructions. The following buffer solutions were prepared: 50 mM HEPES, pH 7.5, 3 mM MgCl2, 1 mM EGTA, 100 mM NaCl, 0.03% CHAPS, 2 mM DTT. The test compound samples were dissolved in DMSO and added to the screening system at a certain starting concentration such as 10 μM, 3-fold dilution, while setting up both DMSO control and no kinase control. The optimal concentrations of PI3Kα, PI3Kδ, PI3Kβ and PI3Kγ enzymes, substrate (PIP2) and ATP were prepared in buffer. The enzyme reaction system included: buffer, ATP 25 μM, kinase substrate (PIP2, 50 μg/mL), kinases [PI3Kα (0.15 μg/mL), PI3Kδ (1.2 μg/mL), PI3Kβ (0.3 μg/mL) and PI3Kγ (2.5 μg/mL)], etc. The reaction system was reacted at room temperature for 1 hour. The reaction was terminated by adding a termination reagent (ADP-Glo reagent, 5 μL), and the ADP content in the system was detected using a detection reagent (Kinase Detection Reagent, 10 μL). Signal data were collected using the Envision instrument. Calculate the percentage of (%) inhibition according to the following formula: % inhibition=(DMSO control signal value−sample signal value)/(DMSO control signal value−no-kinase control signal value). The IC50 value was obtained by fitting the curve using the formula Y=Bottom+(Top-Bottom)/(1+(IC50/X)^HillSlope).
# PI3Kδ = PI3Kδ (Homo sapiens, UniProt O00329); test: PI3Kδ enzyme activity inhibition IC50 evaluation assay (ADP-Glo Kinase Assay); conditions: ATP 25 μM, PIP2 50 μg/mL, 1 hour room temperature, read-out: PI3K-δ IC50
# Sequence of PI3Kδ (O00329 whole entry, species assumed): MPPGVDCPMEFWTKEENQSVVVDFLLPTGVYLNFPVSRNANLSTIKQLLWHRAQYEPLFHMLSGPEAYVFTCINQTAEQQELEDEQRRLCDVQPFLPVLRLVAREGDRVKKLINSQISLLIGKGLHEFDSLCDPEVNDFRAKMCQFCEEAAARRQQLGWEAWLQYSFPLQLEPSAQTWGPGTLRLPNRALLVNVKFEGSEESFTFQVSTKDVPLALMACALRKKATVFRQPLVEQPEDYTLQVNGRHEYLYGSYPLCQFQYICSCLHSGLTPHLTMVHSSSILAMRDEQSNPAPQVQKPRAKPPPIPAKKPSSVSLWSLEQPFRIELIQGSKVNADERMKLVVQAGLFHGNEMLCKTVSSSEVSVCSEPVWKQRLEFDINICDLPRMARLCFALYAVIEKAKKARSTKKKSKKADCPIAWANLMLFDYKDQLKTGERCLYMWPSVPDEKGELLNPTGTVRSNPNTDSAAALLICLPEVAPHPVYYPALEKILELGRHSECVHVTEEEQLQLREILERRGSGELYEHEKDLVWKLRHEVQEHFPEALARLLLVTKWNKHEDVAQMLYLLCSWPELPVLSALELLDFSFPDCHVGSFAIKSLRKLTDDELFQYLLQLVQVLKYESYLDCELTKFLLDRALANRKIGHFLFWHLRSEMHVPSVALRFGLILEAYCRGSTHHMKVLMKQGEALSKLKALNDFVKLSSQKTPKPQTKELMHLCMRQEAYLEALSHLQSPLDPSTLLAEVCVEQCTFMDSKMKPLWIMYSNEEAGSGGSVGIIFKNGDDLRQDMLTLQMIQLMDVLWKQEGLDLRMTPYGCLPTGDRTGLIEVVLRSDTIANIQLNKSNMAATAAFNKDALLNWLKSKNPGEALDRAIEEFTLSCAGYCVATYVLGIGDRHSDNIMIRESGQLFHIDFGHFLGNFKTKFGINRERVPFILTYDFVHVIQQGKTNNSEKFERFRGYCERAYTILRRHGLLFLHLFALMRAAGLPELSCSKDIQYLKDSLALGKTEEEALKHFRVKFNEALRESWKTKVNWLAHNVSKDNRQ
# Sequence of PI3Kδ (P27986 whole entry partner, species assumed): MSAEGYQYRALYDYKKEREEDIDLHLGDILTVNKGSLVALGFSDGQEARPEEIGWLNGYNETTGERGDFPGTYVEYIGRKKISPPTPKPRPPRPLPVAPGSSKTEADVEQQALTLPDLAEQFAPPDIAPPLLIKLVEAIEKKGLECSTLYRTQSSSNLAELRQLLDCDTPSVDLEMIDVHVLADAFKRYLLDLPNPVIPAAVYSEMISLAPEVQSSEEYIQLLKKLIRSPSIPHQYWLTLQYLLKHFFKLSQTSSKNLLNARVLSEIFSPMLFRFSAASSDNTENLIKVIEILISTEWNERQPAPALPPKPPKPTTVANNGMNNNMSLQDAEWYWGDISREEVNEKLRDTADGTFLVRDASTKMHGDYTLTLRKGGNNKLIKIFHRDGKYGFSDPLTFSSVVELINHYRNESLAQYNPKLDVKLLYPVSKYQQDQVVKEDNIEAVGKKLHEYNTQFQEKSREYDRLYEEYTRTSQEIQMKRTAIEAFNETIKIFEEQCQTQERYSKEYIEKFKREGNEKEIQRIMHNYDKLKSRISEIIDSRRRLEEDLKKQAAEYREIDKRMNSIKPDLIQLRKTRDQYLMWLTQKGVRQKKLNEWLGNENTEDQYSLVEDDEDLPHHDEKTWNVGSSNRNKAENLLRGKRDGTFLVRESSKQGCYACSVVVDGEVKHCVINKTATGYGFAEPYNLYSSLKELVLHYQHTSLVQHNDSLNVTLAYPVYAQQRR
# Protocol: as §1, §2
# HDAC6 = molecular target: T1, HDAC6 (Homo sapiens, UniProt Q9UBN7); test: HDAC6 enzyme activity inhibition IC50 evaluation experiment; conditions: HDAC6 5 nM, acetylated peptide 11 μM, trypsin, fluorescence
# T1 sequence (Q9UBN7 1-1215): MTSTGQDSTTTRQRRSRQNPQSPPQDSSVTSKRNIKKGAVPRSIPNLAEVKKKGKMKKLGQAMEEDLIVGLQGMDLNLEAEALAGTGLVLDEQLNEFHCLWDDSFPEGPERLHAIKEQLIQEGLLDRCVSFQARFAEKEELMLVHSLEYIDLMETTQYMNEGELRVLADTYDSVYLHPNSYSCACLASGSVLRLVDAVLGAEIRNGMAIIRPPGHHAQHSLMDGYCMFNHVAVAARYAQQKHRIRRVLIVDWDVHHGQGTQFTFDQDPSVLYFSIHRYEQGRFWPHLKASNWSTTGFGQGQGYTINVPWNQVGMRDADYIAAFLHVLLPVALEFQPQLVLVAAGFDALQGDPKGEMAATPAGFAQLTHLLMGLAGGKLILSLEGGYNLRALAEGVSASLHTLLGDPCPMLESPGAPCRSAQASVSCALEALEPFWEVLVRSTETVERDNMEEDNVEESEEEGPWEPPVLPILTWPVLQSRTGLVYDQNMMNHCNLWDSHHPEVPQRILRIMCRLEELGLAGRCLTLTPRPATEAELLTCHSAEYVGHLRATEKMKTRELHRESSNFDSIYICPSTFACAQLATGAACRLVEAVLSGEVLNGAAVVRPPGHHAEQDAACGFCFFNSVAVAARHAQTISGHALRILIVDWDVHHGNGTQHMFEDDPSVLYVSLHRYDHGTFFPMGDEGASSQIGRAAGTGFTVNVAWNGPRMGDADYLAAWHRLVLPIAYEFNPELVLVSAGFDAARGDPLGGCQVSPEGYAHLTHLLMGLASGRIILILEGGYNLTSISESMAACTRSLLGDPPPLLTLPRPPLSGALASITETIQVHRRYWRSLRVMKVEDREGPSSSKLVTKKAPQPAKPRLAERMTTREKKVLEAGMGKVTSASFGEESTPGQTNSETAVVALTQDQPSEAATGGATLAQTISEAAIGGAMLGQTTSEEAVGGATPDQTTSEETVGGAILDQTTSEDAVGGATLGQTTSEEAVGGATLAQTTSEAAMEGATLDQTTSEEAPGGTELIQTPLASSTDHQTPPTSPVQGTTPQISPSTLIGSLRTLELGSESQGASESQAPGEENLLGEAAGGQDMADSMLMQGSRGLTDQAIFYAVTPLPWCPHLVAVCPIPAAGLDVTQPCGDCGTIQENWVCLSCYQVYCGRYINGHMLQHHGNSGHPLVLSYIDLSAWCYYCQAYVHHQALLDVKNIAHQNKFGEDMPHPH
# Protocol: Effect Example 2 HDAC1, HDAC2, HDAC3, HDAC6 enzyme activity inhibition IC50 evaluation experiment
# Buffer solution (50 mM Tris 7.5, 0.01% Tween-20, 50 mM NaCl) was prepared according to the kit instructions, and the enzyme solution and substrate solution (acetylated peptide with the addition of trypsin) were prepared using the buffer solution. The test compound samples were dissolved with DMSO and added to the screening system at a certain starting concentration such as 10 μM, 3-fold dilution, while setting up a DMSO control and no-enzyme control. The enzyme reaction system includes: buffer, enzyme [final concentration: HDAC1=10 nM, HDAC2=4 nM, HDAC3=7 nM, HDAC6=5 nM], substrate (acetylated peptide) [final concentration: Peptide(HDAC1)=8 μM, Peptide(HDAC2)=10 μM, Peptide(HDAC3)=5 μM, Peptide(HDAC6)=11 μM], trypsin [final concentration: Trypsin(HDAC1,2,3)=0.05 μM, Trypsin(HDAC6)=0.1 μM], etc. The enzymes and compounds were reacted at room temperature for 15 min. After adding the substrate and Trypsin, centrifugation was performed for 1 min, and the fluorescence signal data (excitation wavelength 355 nM/emission wavelength 460 nm) was read continuously for 60 min using Envision, and the linear reaction segment was selected to obtain the slope and thus calculate the inhibition rate at that concentration. The IC50 value was obtained by fitting the curve using the formula Y=Bottom+(Top-Bottom)/(1+(IC50/X)^HillSlope).
# Sequence of PI3Kα (P42336 whole entry, species assumed): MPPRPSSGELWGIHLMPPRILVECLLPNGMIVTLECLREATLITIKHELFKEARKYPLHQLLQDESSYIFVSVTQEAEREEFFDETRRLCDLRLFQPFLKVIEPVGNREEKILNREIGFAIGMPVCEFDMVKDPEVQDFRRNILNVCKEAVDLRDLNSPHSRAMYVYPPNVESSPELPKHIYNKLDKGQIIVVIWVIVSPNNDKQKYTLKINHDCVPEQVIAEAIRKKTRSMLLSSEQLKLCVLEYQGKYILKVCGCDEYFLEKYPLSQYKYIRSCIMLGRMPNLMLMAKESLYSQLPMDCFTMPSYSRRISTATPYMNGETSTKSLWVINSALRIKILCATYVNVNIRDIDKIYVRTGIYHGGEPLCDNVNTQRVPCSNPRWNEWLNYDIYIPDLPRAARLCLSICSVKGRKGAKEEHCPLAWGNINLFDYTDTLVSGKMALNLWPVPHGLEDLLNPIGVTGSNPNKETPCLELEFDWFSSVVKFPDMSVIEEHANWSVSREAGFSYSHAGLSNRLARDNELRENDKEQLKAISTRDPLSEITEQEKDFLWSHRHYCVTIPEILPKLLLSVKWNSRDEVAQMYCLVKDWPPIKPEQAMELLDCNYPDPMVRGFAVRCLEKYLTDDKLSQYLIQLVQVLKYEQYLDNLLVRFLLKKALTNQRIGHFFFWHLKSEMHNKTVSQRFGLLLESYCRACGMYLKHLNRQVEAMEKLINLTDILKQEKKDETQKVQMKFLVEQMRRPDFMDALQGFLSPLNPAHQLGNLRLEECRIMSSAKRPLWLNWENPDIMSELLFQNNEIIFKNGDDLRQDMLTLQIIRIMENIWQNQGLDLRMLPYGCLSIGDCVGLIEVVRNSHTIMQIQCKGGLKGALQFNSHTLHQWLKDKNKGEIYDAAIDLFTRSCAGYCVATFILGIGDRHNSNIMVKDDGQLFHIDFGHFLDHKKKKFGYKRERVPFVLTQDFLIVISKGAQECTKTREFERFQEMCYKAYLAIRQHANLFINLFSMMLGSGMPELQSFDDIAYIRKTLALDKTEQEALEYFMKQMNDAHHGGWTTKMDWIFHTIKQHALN
# Sequence of PI3Kα (P27986 whole entry partner, species assumed): as the sequence (P27986 whole entry partner, species assumed) above
IC50 (PI3Kα),IC50 (PI3Kδ),IC50 (HDAC6),SMILES
1000 to 10000 nM,10 to 100 nM,1000 to 10000 nM,COc1ncc(-c2nc(N3CCOCC3)nc3c(CN4CCC(C(=O)NO)CC4)cc(F)cc23)cc1NS(C)(=O)=O [Compound 1]
,≤ 10 nM,100 to 1000 nM,COc1ncc(-c2nc(N3CCOCC3)nc3c(CN4CCC(/C=C/C(=O)NO)CC4)cc(F)cc23)cc1NS(C)(=O)=O [Compound 5]
,≤ 10 nM,100 to 1000 nM,COc1ncc(-c2nc(N3CCOCC3)nc3c(CN4CCN(CCCCC(=O)NO)CC4)cc(F)cc23)cc1NS(C)(=O)=O [Compound 6]
100 to 1000 nM,10 to 100 nM,≤ 10 nM,COc1ncc(-c2nc(N3CCOCC3)nc3c(OCCCCCC(=O)NO)cc(F)cc23)cc1NS(C)(=O)=O [Compound 8]
100 to 1000 nM,≤ 10 nM,10 to 100 nM,COc1ncc(-c2nc(N3CCOCC3)nc3c(CN4CCN(Cc5ccc(C(=O)NO)cc5)CC4)cc(F)cc23)cc1NS(C)(=O)=O [Compound 10]
1000 to 10000 nM,≤ 10 nM,100 to 1000 nM,COc1ncc(-c2nc(N3CCOCC3)nc3c(CN4CCC(OCCC(=O)NO)CC4)cc(F)cc23)cc1NS(C)(=O)=O [Compound 11]
100 to 1000 nM,≤ 10 nM,100 to 1000 nM,COc1ncc(-c2nc(N3CCOCC3)nc3c(CN4CCN(Cc5ncc(C(=O)NO)cn5)CC4)cc(F)cc23)cc1NS(C)(=O)=O [Compound 12]
1000 to 10000 nM,≤ 10 nM,100 to 1000 nM,COc1ncc(-c2nc(N3CCOCC3)nc3c(CN4CCC(OCCCC(=O)NO)CC4)cc(F)cc23)cc1NS(C)(=O)=O [Compound 13]
1000 to 10000 nM,10 to 100 nM,1000 to 10000 nM,COc1ncc(-c2nc(N3CCOCC3)nc3c(CN4CCC(N5CCC(C(=O)NO)CC5)CC4)cc(F)cc23)cc1NS(C)(=O)=O [Compound 14]
100 to 1000 nM,≤ 10 nM,100 to 1000 nM,COc1ncc(-c2nc(N3CCOCC3)nc3c(CN4CCC(CCCCC(=O)NO)CC4)cc(F)cc23)cc1NS(C)(=O)=O [Compound 15]
100 to 1000 nM,10 to 100 nM,1000 to 10000 nM,COc1ncc(-c2nc(N3CCOCC3)nc3c(CN4CC(OCCOCC(=O)NO)C4)cc(F)cc23)cc1NS(C)(=O)=O [Compound 16]
1000 to 10000 nM,≤ 10 nM,10 to 100 nM,COc1ncc(-c2nc(N3CCOCC3)nc3c(CN4CCC(c5ccc(C(=O)NO)cc5F)CC4)cc(F)cc23)cc1NS(C)(=O)=O [Compound 17]
1000 to 10000 nM,10 to 100 nM,,O=C(CCCC1CCN(Cc2cc(F)cc3c(-c4cncc(NS(=O)(=O)C5CC5)c4)nc(N4CCOCC4)nc23)CC1)NO [Compound 27]
100 to 1000 nM,≤ 10 nM,,COc1ncc(-c2nc(N3CCOCC3)nc3c(CN4CCC(c5ccc(C(=O)NO)cc5F)CC4)cc(F)cc23)cc1NS(=O)(=O)C(F)(F)F [Compound 29]
,10 to 100 nM,10 to 100 nM,COc1ncc(-c2nc(N3CCOCC3)nc3c(OC4CCN(c5ccc(C(=O)NO)cc5F)CC4)cc(F)cc23)cc1NS(C)(=O)=O [Compound 31]
,≤ 10 nM,1000 to 10000 nM,COc1ncc(-c2nc(N3CCOCC3)nc3c(O[C@H]4CC[C@H](N5CCC(C(=O)NO)CC5)CC4)cc(F)cc23)cc1NS(C)(=O)=O [Compound 32]
,10 to 100 nM,10 to 100 nM,COc1ncc(-c2nc(N3CCOCC3)nc3c(OC4CCN(Cc5ccc(C(=O)NO)cc5F)CC4)cc(F)cc23)cc1NS(C)(=O)=O [Compound 33]
,10 to 100 nM,10 to 100 nM,COc1ncc(-c2nc(N3CCOCC3)nc3c(CN4CCN(c5ccc(C(=O)NO)cc5F)CC4)cc(F)cc23)cc1NS(C)(=O)=O [Compound 34]
,100 to 1000 nM,,COc1ncc(-c2nc(N3CCOCC3)nc3c(OCCc4ccc(C(=O)NO)cc4F)cc(F)cc23)cc1NS(C)(=O)=O [Compound 37]
,10 to 100 nM,,COc1ncc(-c2nc(N3CCOCC3)nc3c(OCc4ccc(C(=O)NO)cc4F)cc(F)cc23)cc1NS(C)(=O)=O [Compound 38]
